Patent publication US20040057908A1, “Oral compositions and use thereof” (priority 2003, published 2004)
≈ marks a conversion by molar mass, not a printed value. Where two headings read alike, the source gives them in different places.

Assays:
GTF D [1] = biological target: T1, GTF D (Streptococcus mutans serotype c, UniProt P49331); test: GTF activity adsorbed onto sHA surface, GTF D; type: biochemical; settings: mean (SD)
T1 construct: made in house; host or cells: Streptococcus milleri NH5 (culture supernatant)
Protocol: (§1) Glucosyltransferase activity was measured by the incorporation of [^14C-glucose] from labeled sucrose (NEN Research Products, Boston, Mass.) into glucans (Germaine et al., 1974; Venkitaraman et al., 1995). The GTF enzyme added to each sample for all assays was equivalent to the amount required to incorporate 1.0-1.5 μmol of glucose over the four hours reaction (1.0-1.5 units).
(§2) For surface assays, the GTFs were adsorbed to hydroxyapatite beads coated with clarified whole saliva (free of GTF activity), as detailed elsewhere (Koo et al., 2000c; Schilling and Bowen, 1988, Venkitaraman et al., 1995). The saliva-coated hydroxyapatite (sHA) beads were exposed to sufficient enzyme to saturate the surface as determined experimentally. Following the adsorption of the enzyme, the beads were washed 3 times with buffer to remove the loosely bound material and exposed to 300 μl of the two-fold dilution series of test compounds (or control) for 30 min. at the same concentrations described above. The beads were washed and exposed to 300 μl [^14C-glucose]-sucrose substrate (100.0 mmol/l sucrose, final concentration). The radiolabeled glucan formed was collected and quantified by scintillation counting (Germaine et al., 1974; Venkitaraman et al., 1995). All the solution and surface assays were done in quadruplicate in at least 3 different experiments.

GTF B [2] = biological target: T2, GTF B (Streptococcus mutans serotype c, UniProt P08987); test: GTF activity adsorbed onto saliva-coated hydroxyapatite (sHA) surface, GTF B; type: biochemical; settings: mean (SD)
T2 construct: made in house; host or cells: Streptococcus milleri KSB8 (culture supernatant)
Protocol: as §1, §2

[3] = test system: Streptococcus mutans UA 159; test: MIC and MBC, broth dilution; type: cell-based
Protocol: (§3) The minimum inhibitory concentration (MIC) and minimum bactericidal concentration (MBC) were determined for each test compound according to the National Committee for Clinical Laboratory Standards guidelines (Tentative standard M26-T, 1992; NCCLS Publication No. M7-A5, 2000) and Koo et al. (2000b). The broth microdilution and macrodilution methods (in TSB) were used for the antibacterial tests. The starting inoculum was 5×10^5 CFU/ml and the concentrations of test compounds ranged from 15.6 to 500 μM (two-fold dilutions). The MICs and MBCs were determined in quadruplicate in at least 3 different experiments.

[4] = test system: Streptococcus sobrinus 6715; test: MIC and MBC, broth dilution; type: cell-based
Protocol: as §3

[5] = test system: Streptococcus mutans GS-5; test: MIC and MBC, broth dilution; type: cell-based
Protocol: as §3

[6] = test system: Mutans Streptococci Strains; test: MIC and MBC, broth dilution, all strains stated together; type: cell-based, S. mutans (GS-5 and UA159) and S. sobrinus 6715
Protocol: as §3

GTF Ss [7] = biological target: T3, GTF Ss (Streptococcus sanguinis, UniProt A3CLJ9); test: GTF activity in solution, GTF Ss; type: biochemical, S. sanguinis; settings: mean (SD)
Protocol: as §1
(§4) For solution assays, purified GTF B, C, D and Ss were mixed with a two-fold dilution series of the test compounds (concentration ranging from 125 to 500 μM) and incubated with [^14C-glucose]-sucrose substrate (0.2 μCi/ml) (200.0 mmol/l sucrose, 40 μmol/l dextran 9000, 0.02% sodium azide in adsorption buffer—50 mM KCl, 1.0 mM KPO4, 1.0 mM CaCl2, 0.1 mM MgCl2−pH=6.5) to reach a final concentration of 100 mmol/l sucrose (200 μl final volume). For the control, the same reaction was carried out, where ethanol:DMSO (final concentration of 7.5% and 1.25%, v/v) or ethanol (final concentration of 5%, v/v) replaced the test agent solutions. The samples were incubated 37° C. with rocking for 4 h. After incubation, ice-cold ethanol (1.0 ml) was added and the samples were stored for 18 h, 4° C. for precipitation of glucans. Radiolabeled glucan was determined by scintillation counting (Germaine et al., 1974; Venkitaraman et al., 1995).

GTF Ss [8] = biological target: T3, GTF Ss; test: GTF activity adsorbed onto sHA surface, GTF Ss; type: biochemical, S. sanguinis; settings: mean (SD)
Protocol: as §1, §2

GTF B [9] = biological target: T2, GTF B; test: GTF activity in solution, GTF B; type: biochemical; settings: mean (SD)
Protocol: as §1, §4

GTF C [10] = biological target: T4, GTF C (Streptococcus mutans serotype c, UniProt P13470); test: GTF activity in solution, GTF C; type: biochemical; settings: mean (SD)
T4 construct: The supernatant was carefully collected as the source of GTF C; made in house; host or cells: Streptococcus mutans WHB 410 (endogenous gtfC; urea/Triton extract of washed cells, hydroxyapatite chromatography)
Protocol: as §1, §4

GTF C [11] = biological target: T4, GTF C; test: GTF activity adsorbed onto sHA surface, GTF C; type: biochemical; settings: mean (SD)
Protocol: as §1, §2

GTF D [12] = biological target: T1, GTF D; test: GTF activity in solution, GTF D; type: biochemical; settings: mean (SD)
Protocol: as §1, §4

streptococcal GTFs = test system: T5, streptococcal GTFs; test: GTF activity in solution, all GTFs (B, C, D, Ss) stated together; type: biochemical, Streptococcus mutans, S. sanguinis; settings: 125 to 500 μM; solution and surface not told apart
T5 construct: Streptococcus milleri KSB8, which harbors the gtfB gene from S. mutans GS-5 (for GTF B production)
Protocol: The GTF enzyme added to each sample for all assays was equivalent to the amount required to incorporate 1.0-1.5 μmol of glucose over the four hours reaction (1.0-1.5 units).
The samples were incubated 37° C. with rocking for 4 h.
For this assay, a one-way layout experimental design was used in 4×2×7 factorial scheme (enzyme×state×dose). An analysis of variance was carried out and qualitative treatments were compared using Tukey test at level of 5% of significance (p<0.05). A non-linear regression was applied in order to evaluate effects of different concentrations.

[13] = Streptococcus mutans, all strains tested (S. mutans GS-5, UA159, S. sobrinus 6715), read-out: MIC

T2 sequence (P08987 35-1476): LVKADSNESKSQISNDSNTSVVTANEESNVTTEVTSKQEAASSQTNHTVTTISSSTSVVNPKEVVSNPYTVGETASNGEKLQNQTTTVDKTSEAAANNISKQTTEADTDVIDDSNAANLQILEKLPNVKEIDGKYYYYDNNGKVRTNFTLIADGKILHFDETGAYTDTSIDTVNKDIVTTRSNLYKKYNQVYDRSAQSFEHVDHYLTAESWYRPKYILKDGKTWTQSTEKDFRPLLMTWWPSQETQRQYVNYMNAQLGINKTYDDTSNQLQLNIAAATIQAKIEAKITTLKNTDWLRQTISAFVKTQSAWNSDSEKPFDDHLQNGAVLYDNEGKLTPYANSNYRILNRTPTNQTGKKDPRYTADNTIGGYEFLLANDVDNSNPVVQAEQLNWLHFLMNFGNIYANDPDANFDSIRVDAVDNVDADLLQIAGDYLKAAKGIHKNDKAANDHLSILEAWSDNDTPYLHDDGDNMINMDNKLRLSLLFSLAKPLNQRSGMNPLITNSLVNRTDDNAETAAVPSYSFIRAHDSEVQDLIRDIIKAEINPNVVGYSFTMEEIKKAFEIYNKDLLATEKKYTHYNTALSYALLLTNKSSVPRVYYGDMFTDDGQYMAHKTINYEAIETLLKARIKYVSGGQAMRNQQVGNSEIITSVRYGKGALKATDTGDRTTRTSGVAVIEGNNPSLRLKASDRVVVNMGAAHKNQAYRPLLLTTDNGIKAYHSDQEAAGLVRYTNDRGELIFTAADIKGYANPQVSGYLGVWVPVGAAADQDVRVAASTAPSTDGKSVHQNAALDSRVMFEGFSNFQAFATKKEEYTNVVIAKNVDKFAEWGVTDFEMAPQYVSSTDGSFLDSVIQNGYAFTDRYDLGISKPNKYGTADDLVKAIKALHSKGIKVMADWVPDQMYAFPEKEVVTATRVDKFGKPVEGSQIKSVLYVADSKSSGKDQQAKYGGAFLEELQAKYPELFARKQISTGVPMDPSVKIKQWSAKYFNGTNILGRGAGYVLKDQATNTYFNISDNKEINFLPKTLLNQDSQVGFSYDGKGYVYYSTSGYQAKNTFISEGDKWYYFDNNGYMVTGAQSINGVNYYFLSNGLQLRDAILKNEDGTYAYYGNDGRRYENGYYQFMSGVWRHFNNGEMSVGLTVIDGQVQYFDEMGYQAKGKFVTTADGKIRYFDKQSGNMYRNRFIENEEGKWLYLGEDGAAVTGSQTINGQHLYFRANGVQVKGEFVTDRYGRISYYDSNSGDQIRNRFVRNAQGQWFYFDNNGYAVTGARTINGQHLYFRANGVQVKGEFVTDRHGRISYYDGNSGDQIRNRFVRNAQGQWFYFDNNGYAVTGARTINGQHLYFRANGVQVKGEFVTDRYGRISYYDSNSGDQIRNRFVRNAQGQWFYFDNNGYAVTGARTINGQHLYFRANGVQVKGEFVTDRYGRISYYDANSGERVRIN
T1 sequence (P49331 whole entry): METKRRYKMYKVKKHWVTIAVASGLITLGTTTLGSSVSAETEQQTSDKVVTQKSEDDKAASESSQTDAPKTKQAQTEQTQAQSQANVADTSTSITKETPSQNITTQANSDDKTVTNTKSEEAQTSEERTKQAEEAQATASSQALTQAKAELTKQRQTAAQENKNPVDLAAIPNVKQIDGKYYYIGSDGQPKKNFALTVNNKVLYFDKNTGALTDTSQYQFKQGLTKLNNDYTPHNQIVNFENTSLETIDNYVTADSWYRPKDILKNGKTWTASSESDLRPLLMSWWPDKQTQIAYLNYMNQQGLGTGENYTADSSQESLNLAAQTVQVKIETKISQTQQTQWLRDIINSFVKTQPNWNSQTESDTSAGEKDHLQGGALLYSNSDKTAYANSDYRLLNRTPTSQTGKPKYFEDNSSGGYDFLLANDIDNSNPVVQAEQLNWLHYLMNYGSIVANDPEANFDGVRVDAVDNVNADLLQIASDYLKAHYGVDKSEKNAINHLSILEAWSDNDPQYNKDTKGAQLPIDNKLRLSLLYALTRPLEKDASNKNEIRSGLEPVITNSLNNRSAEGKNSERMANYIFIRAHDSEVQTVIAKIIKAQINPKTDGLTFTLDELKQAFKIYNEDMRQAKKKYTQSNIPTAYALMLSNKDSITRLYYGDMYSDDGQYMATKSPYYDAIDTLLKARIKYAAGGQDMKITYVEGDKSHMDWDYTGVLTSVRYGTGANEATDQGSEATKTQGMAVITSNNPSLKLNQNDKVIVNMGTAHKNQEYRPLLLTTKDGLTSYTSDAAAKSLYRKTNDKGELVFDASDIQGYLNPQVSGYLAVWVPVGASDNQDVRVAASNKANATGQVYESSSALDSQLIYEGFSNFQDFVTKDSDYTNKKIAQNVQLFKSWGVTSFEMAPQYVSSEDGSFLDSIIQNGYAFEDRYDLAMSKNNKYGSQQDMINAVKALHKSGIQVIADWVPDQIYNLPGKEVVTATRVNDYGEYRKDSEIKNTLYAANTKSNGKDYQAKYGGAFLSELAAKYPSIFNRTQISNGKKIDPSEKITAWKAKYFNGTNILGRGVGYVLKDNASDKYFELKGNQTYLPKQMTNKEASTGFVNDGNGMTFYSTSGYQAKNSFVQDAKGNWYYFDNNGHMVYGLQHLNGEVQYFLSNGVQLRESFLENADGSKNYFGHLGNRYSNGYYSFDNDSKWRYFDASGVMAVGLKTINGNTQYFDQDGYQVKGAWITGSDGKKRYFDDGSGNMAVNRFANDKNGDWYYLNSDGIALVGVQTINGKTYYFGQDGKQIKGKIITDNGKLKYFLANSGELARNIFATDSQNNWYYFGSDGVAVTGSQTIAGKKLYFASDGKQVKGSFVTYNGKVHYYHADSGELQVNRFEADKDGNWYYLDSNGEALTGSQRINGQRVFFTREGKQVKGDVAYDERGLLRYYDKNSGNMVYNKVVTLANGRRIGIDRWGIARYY
T4 sequence (P13470 35-1455): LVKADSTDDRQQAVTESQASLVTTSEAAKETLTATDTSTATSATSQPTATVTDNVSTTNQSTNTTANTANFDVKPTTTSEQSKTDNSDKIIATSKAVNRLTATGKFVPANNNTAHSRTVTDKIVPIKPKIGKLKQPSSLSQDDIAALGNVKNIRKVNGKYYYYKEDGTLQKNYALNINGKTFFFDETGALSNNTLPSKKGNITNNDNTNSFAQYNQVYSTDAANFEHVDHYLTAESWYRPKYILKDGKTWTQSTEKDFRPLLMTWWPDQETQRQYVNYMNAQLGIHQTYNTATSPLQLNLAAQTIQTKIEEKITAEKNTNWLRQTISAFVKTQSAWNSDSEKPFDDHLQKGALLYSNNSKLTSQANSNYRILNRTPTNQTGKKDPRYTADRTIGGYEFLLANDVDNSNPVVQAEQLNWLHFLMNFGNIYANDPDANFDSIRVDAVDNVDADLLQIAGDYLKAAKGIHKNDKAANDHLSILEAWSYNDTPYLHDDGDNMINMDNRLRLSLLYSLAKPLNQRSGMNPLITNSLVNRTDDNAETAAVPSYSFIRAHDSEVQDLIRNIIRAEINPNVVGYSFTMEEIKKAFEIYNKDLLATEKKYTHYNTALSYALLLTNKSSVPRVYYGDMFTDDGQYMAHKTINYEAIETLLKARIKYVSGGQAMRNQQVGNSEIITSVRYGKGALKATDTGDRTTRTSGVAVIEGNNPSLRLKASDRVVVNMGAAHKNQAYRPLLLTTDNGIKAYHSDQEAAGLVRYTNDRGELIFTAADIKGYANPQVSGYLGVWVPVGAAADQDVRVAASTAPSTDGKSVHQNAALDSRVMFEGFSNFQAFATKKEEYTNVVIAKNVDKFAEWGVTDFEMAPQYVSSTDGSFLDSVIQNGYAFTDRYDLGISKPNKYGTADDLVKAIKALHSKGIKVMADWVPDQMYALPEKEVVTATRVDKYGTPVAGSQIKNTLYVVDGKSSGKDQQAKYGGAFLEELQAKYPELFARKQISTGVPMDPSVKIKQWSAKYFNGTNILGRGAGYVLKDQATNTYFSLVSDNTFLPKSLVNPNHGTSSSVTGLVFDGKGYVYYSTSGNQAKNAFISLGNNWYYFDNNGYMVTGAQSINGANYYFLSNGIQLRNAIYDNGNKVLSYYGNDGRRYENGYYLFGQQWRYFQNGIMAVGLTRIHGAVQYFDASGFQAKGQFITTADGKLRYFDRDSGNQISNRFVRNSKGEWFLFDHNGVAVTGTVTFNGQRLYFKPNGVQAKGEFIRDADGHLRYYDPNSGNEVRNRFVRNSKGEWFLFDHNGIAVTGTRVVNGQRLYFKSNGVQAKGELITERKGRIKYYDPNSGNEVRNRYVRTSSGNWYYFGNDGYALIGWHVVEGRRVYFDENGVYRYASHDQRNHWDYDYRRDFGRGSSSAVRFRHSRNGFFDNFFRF

O=C1C[C@@H](c2ccccc2)Oc2cc(O)cc(O)c21 [Pinocembrin]
GTF D surf. % of Inhib. (GTF D [1]; 125 μM): 0.0 (0.7) % | GTF D surf. % of Inhib. (GTF D [1]; 250 μM): 8.2 (2.7) % | GTF D surf. % of Inhib. (GTF D [1]; 500 μM): 15.5 (6.2) % | GTF B surf. % of Inhib. (GTF B [2]; 125 μM): 0.7 (3.3) % | GTF B surf. % of Inhib. (GTF B [2]; 250 μM): 8.8 (4.3) % | GTF B surf. % of Inhib. (GTF B [2]; 500 μM): 18.9 (5.4) % | MBC [3]: >500 µM | MIC [3]: 250 µM (≈ 64.1 µg/mL) | MBC ([4]; S. sobrinus 6715): 128 µg/mL | MBC ([4]; Streptococcus sobrinus 6715): 500 µM | MIC ([4]; Streptococcus sobrinus 6715): 250 µM (≈ 64.1 µg/mL) | MBC [5]: >500 µM | MIC [5]: 250 µM (≈ 64.1 µg/mL) | MIC ([6]; all strains tested): 64 µg/mL | MIC ([6]; all strains tested (S. mutans GS-5, UA159, S. sobrinus 6715), read-out: MIC): 250 µM | GTF Ss sol. % of Inhib. (GTF Ss [7]; 125 μM): 25.7 (4.1) % | GTF Ss sol. % of Inhib. (GTF Ss [7]; 250 μM): 32.6 (6.8) % | GTF Ss sol. % of Inhib. (GTF Ss [7]; 500 μM): 45.7 (8.3) % | GTF Ss surf. % of Inhib. (GTF Ss [8]; 125 μM): 0.0 (0.2) % | GTF Ss surf. % of Inhib. (GTF Ss [8]; 250 μM): 0.0 (4.2) % | GTF Ss surf. % of Inhib. (GTF Ss [8]; 500 μM): 10.5 (2.7) % | GTF B sol. % of Inhib. (GTF B [9]; 125 μM): 3.7 (5.2) % | GTF B sol. % of Inhib. (GTF B [9]; 250 μM): 7.2 (1.6) % | GTF B sol. % of Inhib. (GTF B [9]; 500 μM): 15.9 (4.7) % | GTF C sol. % of Inhib. (GTF C [10]; 125 μM): 0.0 (0.7) % | GTF C sol. % of Inhib. (GTF C [10]; 250 μM): 8.5 (3.2) % | GTF C sol. % of Inhib. (GTF C [10]; 500 μM): 17.2 (4.2) % | GTF C surf. % of Inhib. (GTF C [11]; 125 μM): 0.0 (0.0) % | GTF C surf. % of Inhib. (GTF C [11]; 250 μM): 0.4 (0.1) % | GTF C surf. % of Inhib. (GTF C [11]; 500 μM): 13.5 (4.9) % | GTF D sol. % of Inhib. (GTF D [12]; 125 μM): 1.5 (0.1) % | GTF D sol. % of Inhib. (GTF D [12]; 250 μM): 4.8 (2.7) % | GTF D sol. % of Inhib. (GTF D [12]; 500 μM): 14.9 (4.2) %

O=C(O)/C=C/c1ccc(O)cc1 [p-Coumaric acid]
MIC [6, 13]: > 500 µM

COc1cc(/C=C/C(=O)O)ccc1O [Ferulic acid]
MIC [6, 13]: > 500 µM

O=c1cc(-c2ccc(O)c(O)c2)oc2cc(O)cc(O)c12 [Luteolin]
MIC [6, 13]: > 500 µM

O=C(O)c1ccccc1 [Benzoic acid]
MIC ([6]; Streptococcus mutans): > 500 µM

O=C(O)c1ccc(O)c(O)c1 [Protocatechuic acid]
effects on GTF enzymes (in words) (streptococcal GTFs): enhanced | MIC ([6]; Streptococcus mutans): > 500 µM

O=C(O)/C=C/c1ccc(O)c(O)c1 [Caffeic acid]
MIC [6, 13]: > 500 µM
